Data taken from patent EP2077260B1, “AMIDE COMPOUND OR SALT THEREOF, AND BIOFILM FORMATION INHIBITOR, BIOFILM REMOVER AND BACTERICIDE EACH USING THE AMIDE COMPOUND OR SALT THEREOF” (The University of Tokyo, priority 2006, dated 2008).
Values after ≈ are worked out from the molar mass of the structure shown. Like-named read-outs stand apart in the source and are kept apart here.

How the values were obtained:
[1] = tested on: Escherichia coli ATCC 25922; settings: Publicly-known data, CLSI(M100-S16)2006 liquid dilution method; cited from earlier work
[2] = tested on: Staphylococcus aureus ATCC 29213; settings: Publicly-known data, CLSI(M100-S16)2006 liquid dilution method; cited from earlier work
[3] = tested on: Staphylococcus aureus Methicillin resistant (MRSA) ATCC 43300; assay: Evaluation test for disinfecting effect, broth dilution method CLSI(M7-A7)2006; type: cell-based; settings: 37°C, 18 hours
From the text: (§1) The following test compounds were examined for the disinfecting activities against Pseudomonas aeruginosa, E.. Coli and staphylococcus aureus, according to a broth dilution method of "CLSI(M7-A7)2006" (Clinical and Laboratory Standards Institute, M7-A7, Methods for Dilution Antimicrobial Susceptibility Tests for Bacteria That Grow Aerobically; Approved Standard-Seventh Edition, 2006),
(§2) • Pseudomonas aeruginosa PAO1 • Pseudomonas aeruginosa ATCC 27853 • Escherichia coli ATCC 25922 • Staphylococcus aureus ATCC 29213 • Staphylococcus aureus Methicillin resistant (MRSA) ATCC 43300
(§3) Each of above-mentioned bacteria was inoculated in a TSB culture medium (Bacto TSB Broth, product of BD) for overnight cultivation at 37°C. The culture solution was applied to a TSB agar plate for about a 20-hour cultivation to form colonies. Three to five colonies were taken from the agar plate, and an average colony of them was inoculated in a 4mL TSB culture medium.. The colony was cultivated at 35°C until the number of microorganisms became 1 × 10^8 to 2 x 10^8 CFU/mL. The number of microorganisms with time was found by measuring changes in absorbency at 590nm of culture solution with time. When the turbidity became equivalent to 0.5 McFarland standard, it was determined that the number of microorganisms reached the target level = 1 × 10^8 to 2 × 10^8 CFU/mL.
(§4) The bacillus culture solution thus obtained was diluted 10-fold within 15 minutes, and a 5µL portion was inoculated in each well of an evaluation 96-well microplate. This 96-well microplate was a sterilized 96-well microplate with U-shaped bottoms (Falcon 35-3918: product of BD), and each well was filled with a 100µL portion of MH culture medium (BBL MH Broth: product of BD). Within 15 minutes after inoculation of the bacillus culture solutions, the test compounds were supplied to the well in a manner of 2-fold graded dilution. The cultivation was then carried out at 37°C for 18 hours.
(§5) The MIC was determined as follows. "S (susceptible)" indicates a concentration which caused 80% or more reduction in the diameter of the aggregation deposited in the bottom of the well, compared to when the test liquid is not used. "R (Resistant)" indicates a concentration that caused less than 80% reduction in diameter. The reduction was measured visually.. "I(Intermediate)" indicates a concentration that cannot be measured visually

[4] = tested on: Pseudomonas aeruginosa PAO1; assay: as above; type: cell-based; settings: 37°C, 18 hours
From the text: as §1, §2, §3, §4, §5

[5] = tested on: Pseudomonas aeruginosa ATCC 27853; assay: as above; type: cell-based; settings: 37°C, 18 hours
From the text: as §1, §2, §3, §4, §5

[6] = tested on: Staphylococcus aureus ATCC 29213; assay: as above; type: cell-based; settings: 37°C, 18 hours
From the text: as §1, §2, §3, §4, §5

[7] = tested on: Escherichia coli ATCC 25922; assay: as above; type: cell-based; settings: 37°C, 18 hours
From the text: as §1, §2, §3, §4, §5

[8] = tested on: Pseudomonas aeruginosa ATCC 27853; settings: Publicly-known data, CLSI(M100-S16)2006 liquid dilution method; cited from earlier work
[9] = tested on: Porphyromonas gingivalis 381-strain (clinical strain); assay: Evaluation test for biofilm formation inhibition effect against periodontitis pathogenic bacteria (flow cell system, HA disks, turbidity); type: cell-based; settings: Porphyromonas gingivalis, 336 h; 100µM; 14 days; relative to control test liquid (Mean Comparison OD Value); read-out: Biofilm Formation Inhibition Rate(%)
Method: As with Experiment Example 1, using the flow cell system of FIG. 1, an inhibitory effect against biofilm formation by periodontitis pathogenic bacteria was evaluated for each of the amide compounds produced in Production Examples 1, 3, 5, and 6 (Compounds 1a-1, 1b-1, 1c-1, 1c-2).
Periodontitis pathogenic bacteria Porphyromonas gingivalis 381-strain (clinical strain) was used..
A GAM culture medium containing hemin 5µg/L and menadione 1µg/L was used.
The 381-strain was inoculated in the GAM culture medium, and cultivated until stationary phase (OD550=1.8). Then the culture medium was diluted 20-fold by a fresh GAM culture medium containing the above-mentioned substances.
The test liquid was prepared by dissolving 100µM of each of the Compounds 1a-1, 1b-1, 1c-1, or 1c-2 according to Production Examples 1, 3, 5 and 6 and 100µM of Comparative Compounds 1 and 2 as comparative examples in dimethyl sulfoxide (DMSO), and supplying the resulting DMSO solutions to the above-mentioned bacterial suspensions so that the concentration of each compound becomes 0.1%(v/v).
A DMSO not containing the compound was used as a control test liquid.
The glass cell (4) of the flow cell system (see FIG. 1) was replaced with a stainless cell (3 x 7 x 120mm), and 10 hydroxyapatite (HA) disks (6mm in diameter, 1mm in thickness) were placed in the cell. The HA disks had been subjected to salivary treatment overnight. Each of the test liquids and control test liquids was circulated in the system at a flow rate of 8mL/min for 14 days, Note that the test liquids and the control test liquids were replaced with fresh liquids every two days.
After the cultivation, the HA disks were dipped in 300µL of sterile distilled water, and treated by supersonic wave for 30 minutes at 4°C, The biofilms formed in the HA disks were peeled off and suspended in distilled water. Then, 100µL of the suspension liquid was measured for the turbidity with an absorptiometer (C07500 colorimeter, product of Funakoshi) (measurement wavelength = 550 nm).
A mean OD was found based on the resulting OD values, excluding the minimum and maximum values, Also, a mean value of the turbidities for the Control Test Liquids was found in the same manner as the control mean OD value. A biofilm formation inhibition rate (Inhibition Rate) was found by the following formula. Biofilm Formation Inhibition Rate (%) = […] [formula]

[10] = tested on: Pseudomonas aeruginosa (gfp expression PAO1-strain); assay: Evaluation test for biofilm formation inhibition effect against Pseudomonas aeruginosa (flow cell system, fluorescence confocal microscope); type: cell-based; settings: test liquid 100µM; observed up to 84 hours; compared with control test liquid (huge, thick biofilm)
Method: With the flow cell system shown in FIG. 1, an inhibitory effect against biofilm formation by Pseudomonas aeruginosa was evaluated for each of the amide compounds produced in Production Examples 1, 3, 5, 6 and 7 (Compounds 1a-1, 1b-1, 1c-1, 1c-2, 1d-1), and for each of Comparative Compounds (Comparative Example) 1 to 3 denoted by the following formulas. [drawing 20] [drawing 21] [drawing 22]
A culture medium bottle (1), a peristaltic pump (2), a glass cell (4) and a waste fluid bottle (5) are connected via a silicon tube (6) so that a culture medium (9) is supplied to the glass cell (4) from the culture medium bottle (1) using the peristaltic pump (2). The system includes an air removal section (3) between the peristaltic pump (2) and a turncock (7a), for removing the entrained air. All instruments in the flow cell system are sterilized using gamma-rays or an autoclave.
As specifically described later, the inhibitory effect against biofilm formation of each of the amide compounds is examined in the following manner.. Bacteria are cultured in a glass cell (4) to grow a biofilm on the inner wall of the cell, and a test liquid containing one of the amide compounds is applied to the biofilm. Then the state of the biofilm is observed to evaluate the inhibitory effect against biofilm formation of the compound using a fluorescence confocal microscope (Leica TCS SP2: product of Leica). […]

[11] = I (Intermediate): concentration that cannot be measured visually, read-out: MIC (µg/mL) I
[12] = R (Resistant): concentration that caused less than 80% reduction in diameter of the aggregation, read-out: MIC (µg/mL) R
[13] = S (susceptible): concentration which caused 80% or more reduction in diameter of the aggregation, read-out: MIC (µg/mL) S
[14] = PAO1, I (Intermediate): concentration that cannot be measured visually, read-out: MIC (µg/mL) I
[15] = PAO1, R (Resistant): concentration that caused less than 80% reduction in diameter of the aggregation, read-out: MIC (µg/mL) R
[16] = PAO1, S (susceptible): concentration which caused 80% or more reduction in diameter of the aggregation, read-out: MIC (µg/mL) S
[17] = ATCC27853, I (Intermediate): concentration that cannot be measured visually, read-out: MIC (µg/mL) I
[18] = ATCC27853, R (Resistant): concentration that caused less than 80% reduction in diameter of the aggregation, read-out: MIC (µg/mL) R
[19] = ATCC27853, S (susceptible): concentration which caused 80% or more reduction in diameter of the aggregation, read-out: MIC (µg/mL) S
[20] = ATCC29213, I (Intermediate): concentration that cannot be measured visually, read-out: MIC (µg/mL) I
[21] = ATCC29213, R (Resistant): concentration that caused less than 80% reduction in diameter of the aggregation, read-out: MIC (µg/mL) R
[22] = ATCC29213, S (susceptible): concentration which caused 80% or more reduction in diameter of the aggregation, read-out: MIC (µg/mL) S
[23] = ATCC25922, I (Intermediate): concentration that cannot be measured visually, read-out: MIC (µg/mL) I
[24] = ATCC25922, R (Resistant): concentration that caused less than 80% reduction in diameter of the aggregation, read-out: MIC (µg/mL) R
[25] = ATCC25922, S (susceptible): concentration which caused 80% or more reduction in diameter of the aggregation, read-out: MIC (µg/mL) S

SMILES | MIC (µg/mL) from M100-S16 [1] [µg/mL] | MIC (µg/mL) from M100-S16 [2] [µg/mL] | MIC [3, 11] [µg/mL] | MIC [3, 12] [µg/mL] | MIC [3, 13] [µg/mL] | MIC [4, 14] [µg/mL] | MIC [4, 15] [µg/mL] | MIC [4, 16] [µg/mL] | MIC [5, 17] [µg/mL] | MIC [5, 18] [µg/mL] | MIC [5, 19] [µg/mL] | MIC [6, 20] [µg/mL] | MIC [6, 21] [µg/mL] | MIC [6, 22] [µg/mL] | MIC [7, 23] [µg/mL] | MIC [7, 24] [µg/mL] | MIC [7, 25] [µg/mL] | MIC (µg/mL) from M100-S16 [8] [µg/mL] | inhibition at 100 µM [9] [%] | state of biofilm formation [10]
CC(C)(O/N=C(\C(=O)N[C@@H]1C(=O)N2C(C(=O)[O-])=C(C[n+]3ccccc3)CS[C@H]12)c1csc(N)n1)C(=O)O [CAZ, Ceftazidime] | 0.06 to 0.5 | 4 to 16 | 8 (≈ 14.6 µM) | ≤ 4 | ≥ 16 | 1 (≈ 1.83 µM) | ≤ 0.5 | ≥ 2 | 2 (≈ 3.66 µM) | ≤ 1 | ≥ 4 | 4 (≈ 7.32 µM) | ≤ 2 | ≥ 8 | 0.125 (≈ 0.229 µM) | ≤ 0.063 | ≥ 0.25 | 1 to 4 |  | 
CCCCCCCCCC(=O)CC(=O)Nc1ccccc1O [Comparative Compound 1] |  |  |  |  |  |  |  |  |  |  |  |  |  |  |  |  |  |  | -36 | the huge, thick biofilm was observed as in the control test
CCCCCCCCCCCC(=O)NN1CCCCC1 [Compound 1d-1, N-(piperidin-1-yl) dodecanoyl amide] |  |  |  |  |  |  |  |  |  |  |  |  |  |  |  |  |  |  |  | such biofilm formation was not observed
NC[C@H]1O[C@H](O[C@H]2[C@H](O)[C@@H](O[C@H]3O[C@H](CO)[C@@H](O)[C@H](N)[C@H]3O)[C@H](N)C[C@@H]2N)[C@H](N)C[C@@H]1O [TOB, Tobramycin] | 0.25 to 1 | 0.12 to 1 | 128 (≈ 274 µM) | ≤ 64 | ≥ 256 | 0.5 (≈ 1.07 µM) | ≤ 0.25 | > 1 | 0.5 (≈ 1.07 µM) | ≤ 0.25 | ≥ 1 | 0.25 (≈ 0.535 µM) | ≤ 0.125 | ≥ 0.5 | 0.5 (≈ 1.07 µM) | ≤ 0.25 | ≥ 1 | 0.25 to 1 |  | 
